Where two headings read alike, the source gives them in different places. One block for each substance: values may come before it. Ends that are not written are not given here.
Key:
[1] = test system: KDR; assay: Competition assay of 125I-VEGF binding to CHO-KDR cells; conditions: for efficiency of V1 analogues in displacing 125I-VEGF165 from CHO-KDR cells: displacement curves, FIGS. 10-11; for inhibitory effect on VEGF binding to KDR (CHO-KDR cells): fixed peptide concentration 2.1×10^−4 M, heparin present
Method: Competition assay of binding to CHO-KDR cells. CHO-KDR cells were seeded in 24-well plates at a density of 5×10^5 cells/well. After 24 h, subconfluent plates were transferred at 4 C., and all subsequent operations were done at 4 C. […] The amount of radioactivity bound to the cells was counted in a gamma counter (LKB 1261 Multigamma). The receptor affinity and the number of binding sites per cell were determined by Scatchard's analysis (Scatchard, 1986).

[2] = target: T1, KDR (Homo sapiens, UniProt P35968); assay: ELISA of phage-displayed peptide binding to CHO-KDR cells; conditions: clones selected by anti-VEGF antibody binding, 10^12 pfu/ml
T1 construct: expressed in transfected cells; host or cells: glycosaminoglycan-deficient pgsA 745 CHO cells, psV-7d expression vector
T1 sequence (P35968 20-1356): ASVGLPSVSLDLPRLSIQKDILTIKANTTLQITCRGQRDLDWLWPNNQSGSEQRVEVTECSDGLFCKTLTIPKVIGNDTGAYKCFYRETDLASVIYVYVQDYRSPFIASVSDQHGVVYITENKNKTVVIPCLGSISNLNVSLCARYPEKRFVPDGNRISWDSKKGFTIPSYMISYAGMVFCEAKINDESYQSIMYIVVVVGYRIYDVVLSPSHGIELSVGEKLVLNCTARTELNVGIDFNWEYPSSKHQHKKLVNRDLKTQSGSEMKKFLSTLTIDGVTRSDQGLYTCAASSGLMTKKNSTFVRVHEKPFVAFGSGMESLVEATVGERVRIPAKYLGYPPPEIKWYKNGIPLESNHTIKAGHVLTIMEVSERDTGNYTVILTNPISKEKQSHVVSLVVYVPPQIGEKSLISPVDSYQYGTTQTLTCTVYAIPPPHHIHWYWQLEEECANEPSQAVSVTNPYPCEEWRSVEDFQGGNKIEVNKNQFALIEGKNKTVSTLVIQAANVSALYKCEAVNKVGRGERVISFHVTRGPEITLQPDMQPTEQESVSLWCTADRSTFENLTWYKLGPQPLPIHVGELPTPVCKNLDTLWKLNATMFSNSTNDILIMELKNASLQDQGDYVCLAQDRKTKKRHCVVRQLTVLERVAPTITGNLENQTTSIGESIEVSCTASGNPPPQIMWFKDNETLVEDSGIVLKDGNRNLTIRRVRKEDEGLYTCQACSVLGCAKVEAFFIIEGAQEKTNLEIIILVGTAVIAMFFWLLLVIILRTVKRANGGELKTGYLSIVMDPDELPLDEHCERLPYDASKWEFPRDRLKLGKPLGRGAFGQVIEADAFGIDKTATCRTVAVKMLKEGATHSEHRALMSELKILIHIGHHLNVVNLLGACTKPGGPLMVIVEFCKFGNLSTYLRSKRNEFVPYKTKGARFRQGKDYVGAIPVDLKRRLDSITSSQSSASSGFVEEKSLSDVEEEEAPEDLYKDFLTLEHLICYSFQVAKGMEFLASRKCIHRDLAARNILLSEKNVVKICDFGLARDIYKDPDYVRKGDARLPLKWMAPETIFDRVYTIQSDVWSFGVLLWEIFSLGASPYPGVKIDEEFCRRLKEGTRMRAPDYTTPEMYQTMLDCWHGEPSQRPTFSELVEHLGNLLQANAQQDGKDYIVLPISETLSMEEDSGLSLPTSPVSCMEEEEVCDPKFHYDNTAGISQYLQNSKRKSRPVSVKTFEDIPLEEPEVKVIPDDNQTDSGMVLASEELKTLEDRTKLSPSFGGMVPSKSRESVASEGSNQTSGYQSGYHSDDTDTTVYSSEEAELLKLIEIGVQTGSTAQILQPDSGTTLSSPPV
Method: Exponentially growing CHO-KDR cells were seeded in 96-well microtiter plates at 7×10^4 cells/well and left overnight at 37 C. Cells were fixed with paraformaldehyde (4% in PBS) for 15 min at room temperature and washed with PBS. Wells were then filled with PBS-Glycine 0.2%, kept for 15 min at room temperature and then washed with PBS. Phage particles (10^12 or 10^13/Ml) were added to each well and incubated 2 h at room temperature. Wells were washed with PBS and the amount of bound phage was detected with peroxidase-conjugated anti-M13 phage serum (Pharmacia Biotech, Uppsala, Sweden).

[3] = test system: CPAE cells; assay: CPAE cell proliferation assay (BrdU incorporation); assay type: cell-based, calf
Method: (§1) Cell proliferation assay. To test the anti-VEGF antibody neutralizing effect, CPAE cells were plated into 96-well tissue culture plates at a density of 500 cells/well. After 24 h, various concentrations of anti-VEGF antibody were added. The cells were cultured for an additional day and cell proliferation was measured using the Cell proliferation ELISA kit from Boerhinger (Indianapolis, Ind.). Cells were incubated with BrdU for 4 h at 37 C., and the incorporation of BrdU in newly synthetized DNA was quantified by immunoassay as described by the manufacturer. To investigate the peptide effect, after 24 h of CPAE cell growth, 2.1×10^−4M synthetic peptides were added daily to the culture medium. Cell proliferation was assessed after 24 h, 48 h or 72 h as described above. […] Cells were trypsinized and counted after 5 days using a Coulter counter.

[4] = target: T2, neuropilin 1 (NP1) (Homo sapiens, UniProt O14786); assay: Displacement of 125I-VEGF165 binding to MDA-MB 231 cells; conditions: cells without VEGF-R2, expressing NP1; read-out: CI 50 of inhibition of 125I VEGF165 binding to MDA-MB cells (converted)
T2 construct: endogenous in cells; host or cells: MDA-MB 231 breast tumoral cell line
T2 sequence (O14786 22-923): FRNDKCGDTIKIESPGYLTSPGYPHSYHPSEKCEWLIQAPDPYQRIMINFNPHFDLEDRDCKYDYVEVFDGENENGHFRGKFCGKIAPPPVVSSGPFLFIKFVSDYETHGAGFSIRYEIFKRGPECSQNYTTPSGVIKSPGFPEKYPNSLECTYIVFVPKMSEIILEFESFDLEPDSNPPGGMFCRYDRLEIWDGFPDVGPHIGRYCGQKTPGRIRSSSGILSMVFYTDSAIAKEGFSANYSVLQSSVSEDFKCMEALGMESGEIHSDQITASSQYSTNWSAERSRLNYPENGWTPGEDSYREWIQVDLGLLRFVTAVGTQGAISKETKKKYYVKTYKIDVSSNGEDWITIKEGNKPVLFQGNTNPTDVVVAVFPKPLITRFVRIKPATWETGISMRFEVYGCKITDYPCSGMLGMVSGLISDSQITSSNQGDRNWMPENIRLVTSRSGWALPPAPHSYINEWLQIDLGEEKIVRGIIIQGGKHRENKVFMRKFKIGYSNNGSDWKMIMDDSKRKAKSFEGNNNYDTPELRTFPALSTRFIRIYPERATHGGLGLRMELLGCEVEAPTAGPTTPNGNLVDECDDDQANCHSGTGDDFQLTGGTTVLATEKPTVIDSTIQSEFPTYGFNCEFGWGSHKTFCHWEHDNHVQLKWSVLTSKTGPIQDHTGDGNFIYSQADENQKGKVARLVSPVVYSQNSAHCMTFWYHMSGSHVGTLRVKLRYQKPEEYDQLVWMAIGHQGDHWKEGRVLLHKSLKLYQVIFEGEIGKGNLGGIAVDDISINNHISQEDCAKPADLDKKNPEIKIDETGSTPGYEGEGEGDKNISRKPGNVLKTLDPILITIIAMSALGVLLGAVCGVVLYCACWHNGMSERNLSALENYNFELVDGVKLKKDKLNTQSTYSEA
Text: (§2) Experimental conditions are indicated in the legend of FIG. 10.

[5] = test system: VEGF-R2-VEGF165 and NP1-VEGF165 complexes; assay: Cross linking of I125 VEGF165 to HUV-EC cells; assay type: binding, human; conditions: V1 2.4×10−4M and 4.8×10−4M, I125 VEGF165 160 pM
Text: FIG. 19: Cross linking of I125 VEGF165 (160 pM) to HUV-EC cells. 1: Total binding. […] 3: V1, (2.4×10−4M). 4: V1, (4.8×10−4M).
The 240-260 kDa complex could correspond to the […] complex and the 160-170 kDa complex could correspond to the NP1 -VEGF 165 complex. The labeling of the two complexes was decreased in the presence of the V1 peptide. (FIG. 19)

[6] = test system: HUVEC; assay: VEGF165-induced HUVEC proliferation; assay type: cell-based, human; conditions: V1 400 μg/ml, various VEGF165 concentrations, 96 hours
Method: FIG. 13 Effect of V1 (400 μg/ml) VEGF165 induced HUVEC proliferation. Various concentrations of VEGF165 were added during 96 hours.
The inhibitory effect of V1 on Human umbilical vein endothelial cell (HUVEC) in primary culture.

[7] = test system: VEGF-induced corneal angiogenesis; assay: Rabbit corneal pocket assay; assay type: in vivo; conditions: day 12; for effect on VEGF-induced corneal angiogenic response: implant with 2 pmol VEGF and 30 nmol peptide; for corneal neovascularization by peptide alone vs vehicle: implant with 30 nmol peptide, no VEGF
Method: Rabbit corneal pocket assay. […] These implants were inserted in New Zealand rabbit (Elevage du Trottis, Esperce, France) corneal stroma 2 mm away from the limbus (Favard et al, 1991). Neovascularization was assessed on day 12 by direct examination with a slit lamp and scored according to a 4 grade scale (grade 1: less than 1 mm long neovessels, grade 2: 1 mm long neovessels, grade 3: 1 to 2 mm long neovessels, grade 4: neovessels extending to the implant). Means and standard deviations were determined on 8 implant groups for each condition.

[8] = test system: HUAE cells; assay: KDR anti-idiotypic antibody (AIA)-induced HUAE cell proliferation; assay type: cell-based, human; conditions: 100 ng/ml KDR anti-idiotypic antibodies, peptide daily, 5 days
Method: as §1

[9] = test system: VEGF-R2 on HUV-EC cells; assay type: binding; conditions: for Kd: Scatchard analysis
Text: as §2
(see FIGS. 16A, B and C).

[10] = test system: HUAE cells; assay: VEGF-induced HUAE cell proliferation; assay type: cell-based, human; conditions: 2 ng/ml VEGF, peptide daily, counted after 5 days
Method: as §1

Substance: AAWLPPK [A9, V1 analogue, substitution of the C-terminal arginine by lysine]
- efficiency of V1 analogues in displacing 125I-VEGF165 from CHO-KDR cells [1]: reduced the peptide efficiency

Substance: ATALPP [A10]
- efficiency of V1 analogues in displacing 125I-VEGF165 from CHO-KDR cells [1]: significantly reduced the peptide efficiency

Substance: ATWLPPA [A7]
- efficiency of V1 analogues in displacing 125I-VEGF165 from CHO-KDR cells [1]: totally devoid of activity

- ELISA signal of phage clones on CHO-KDR cells [2]: best reactivities
- IC50 [4]: 45200 nM
Substance: ATWLPPR [V1, ATWLPPR]
- reduction of CPAE cell proliferation ([3]; 2.1×10^−4 M peptide, 24 h): 60%
- labeling of the two 125I-VEGF-receptor complexes [5]: decreased
- inhibition of VEGF-induced HUVEC proliferation [6]: inhibited by V1 in a non competitive manner
- effect on VEGF-induced corneal angiogenic response [7]: totally abolished
- corneal neovascularization by peptide alone vs vehicle [7]: did not improve the generation of new blood vessels
- inhibition of AIA-dependent HUAE cell proliferation [8]: could suppress the AIA-dependent cell proliferation
- effect on VEGF binding to HUV-EC cells ([9]; V1 40 μg/ml, Scatchard): inhibited only the VEGF binding to high affinity receptors
- inhibition of VEGF-induced HUAE cell proliferation [10]: suppressed the mitogenic activity of VEGF in a dose dependent manner
- effect on affinity of I125 VEGF165 for receptors of transfected CHO cells (Scatchard) ([1]; V1 50 μg/ml): lowered
- effect on heparin-dependent VEGF165 binding to transfected CHO cells ([1]; V1 50 μg/ml): inhibited this heparin agonistic effect
- inhibitory effect on VEGF binding to KDR (CHO-KDR cells) [1]: showed an inhibitory effect

Substance: Heparin [reference compound]
- optimal heparin concentration for increasing VEGF binding to CHO-KDR cells [1]: 1.8 µg/mL

Substance: ILDNYKL [V5]
- effect on VEGF-induced corneal angiogenic response [7]: not modified
- corneal neovascularization by peptide alone vs vehicle [7]: did not improve the generation of new blood vessels
- inhibition of AIA-dependent HUAE cell proliferation [8]: unlike V5, V1 could suppress
- inhibition of VEGF-induced HUAE cell proliferation [10]: no inhibitory effect
- effect on VEGF binding to CHO-KDR cells, various concentrations ([1]; same conditions as V1 dose response, FIG. 5): did not modify VEGF binding

- ELISA signal of phage clones on CHO-KDR cells [2]: best reactivities
Substance: LPPNPTK [V6]
- inhibitory effect on VEGF binding to KDR (CHO-KDR cells) [1]: no effect on VEGF binding to KDR

Substance: SLPAHAR [K4]
- effect on endothelial cell growth (words, discussion) ([3]; in vitro): minor effect on endothelial growth

Substance: VEGF
- Kd ([9]; read-out: Kd of I125 VEGF165 on HUV-EC cells, high affinity receptors): 0.117 nM
- Kd ([9]; read-out: Kd of I125 VEGF165 on HUV-EC cells, second (lower affinity) receptors): 2.3 nM

From US6559126B2 (Institut Pasteur, priority 2000, dated 2003)
